Like-named read-outs stand apart in the source and are kept apart here.
Tests used:
eye = conditions: cited from earlier work
RhCE tissues = conditions: without DM test; cited from earlier work
[1] = Depth of Migration (DM) test; format: physicochemical
bovine cornea = conditions: cited from earlier work
cultured epithelium = conditions: cited from earlier work
isolated chicken eye = conditions: without DM test; cited from earlier work
[2] = 1:100 dilution in DM dye solution, 30 μL, 15° platform, after 30-120 seconds, table value

Molecule	in vivo GHS (eye; rabbit, in vivo)	DM Distance Traveled [1, 2] [cm]	in vivo GHS (eye; GHS category)	other results
c1ccc2c(c1)CCc1ccccc1N2 [Iminodibenzyl]	Cat. 1	4.5		EpiOcular prediction versus in vivo (RhCE tissues): false negatives
C=CC(=O)OCCO [Hydroxyethyl acrylate]				DM Distance Traveled [1]: 4.5 cm
CC(C)(C)CC(C)(C)c1ccc(O)cc1 [4-(1,1,3,3-Tetramethylbutyl)phenol]			Cat. 1	BCOP prediction versus in vivo (bovine cornea; without DM test): false negatives; DM Distance Traveled [1]: 4.5 cm
CCO [Ethanol]		4.5	Cat. 2	Short Time Exposure (STE) prediction versus in vivo (cultured epithelium; without DM test): false negatives
Cc1c(COC(=O)[C@@H]2[C@H](/C=C(\Cl)C(F)(F)F)C2(C)C)cccc1-c1ccccc1 (racemic) [Bifenthrin]		4.5	Cat. 2	EpiOcular prediction versus in vivo (RhCE tissues): false negatives
COC(C)=O [Methyl acetate]		4.5	Cat. 2	Short Time Exposure (STE) prediction versus in vivo (cultured epithelium; without DM test): false negatives
Triton X-100 (10%)				known ocular irritancy class of the chemical (eye; reference classification): ocular corrosive
N[C@@H](CC(=O)O)C(=O)O [L-Aspartic acid]		4.5		
CCCOCC(C)OCC(C)O (stereo not drawn) [1-(1-methyl-2-propoxyethoxy)propan-2-ol]	Cat. 2			Short Time Exposure (STE) prediction versus in vivo (cultured epithelium): false negatives; DM Distance Traveled [1]: 4.5 cm
O=Cc1ccc(C(=O)O)cc1 [4-carboxybenzaldehyde]		4.5	Cat. 2	ICE prediction versus in vivo (isolated chicken eye): false negatives
C/C=C/C=C/C(=O)[O-].[K+] [Potassium sorbate]	Cat. 2			Short Time Exposure (STE) prediction versus in vivo (cultured epithelium): false negatives; DM Distance Traveled [1]: 4.5 cm
C=C1C2CCC(C2)C1(C)C (stereo not drawn) [Camphene]		4.5		
CC(C)O [Isopropanol]		4.5	Cat. 2	Short Time Exposure (STE) prediction versus in vivo (cultured epithelium; without DM test): false negatives
CCCCOc1ccc(OCCCC)cc1 [1,4-dibutoxy benzene]		4.5	Cat. 2	EpiOcular prediction versus in vivo (RhCE tissues): false negatives
O=C([O-])c1ccccc1O.[Na+] [Sodium salicylate]	Cat. 1			Short Time Exposure (STE) prediction versus in vivo (cultured epithelium): false negatives; DM Distance Traveled [1]: 4.5 cm
COC(=O)CC#N [Methyl cyanoacetate]		4.5	Cat. 2	Short Time Exposure (STE) prediction versus in vivo (cultured epithelium; without DM test): false negatives; EpiOcular prediction versus in vivo (RhCE tissues): false negatives; ICE prediction versus in vivo (isolated chicken eye): false negatives
CCOC(=O)CC(=O)c1cc(F)c(Cl)nc1Cl [Ethyl 2,6-dichloro-5-fluoro-beta-oxo-3-pyridine propionate]	Cat. 2	4.5		BCOP prediction versus in vivo (bovine cornea): false negatives
CCCCCCCCCCCCCCO [Myristyl alcohol]	Cat. 2	4.5		Short Time Exposure (STE) prediction versus in vivo (cultured epithelium): false negatives
O=C(Cl)c1c(Cl)cccc1Cl [2,6-Dichlorobenzoyl chloride]		4.5	Cat. 2	Short Time Exposure (STE) prediction versus in vivo (cultured epithelium; without DM test): false negatives
CC(=O)O[C@H]1NC(=O)[C@@H]1[C@@H](C)O[Si](C)(C)C(C)(C)C [(2R,3R)-3-((R)-1-(tert-Butyldimethylsiloxy)ethyl)-4-oxoazetidin-2-yl acetate]		4.5	Cat. 2	BCOP prediction versus in vivo (bovine cornea; without DM test): false negatives
CCN(CC)CCCC(C)Nc1c2ccc(Cl)cc2nc2ccc(OC)cc12 (stereo not drawn) [Quinacrine]	Cat. 1	4.5		BCOP prediction versus in vivo (bovine cornea; without DM test): false negatives
CC(C)(O)CCC(C)(C)O [2,5-Dimethyl-2,5-hexanediol]		4.5	Cat. 1	Short Time Exposure (STE) prediction versus in vivo (cultured epithelium; without DM test): false negatives

Source: patent US20240118265A1, “MATERIALS AND METHODS TO IMPROVE IN VITRO TOXICITY PREDICTIONS” (priority 2022, published 2024)
